# Test results published in patent US20080032965A1, “Method for enhancing cognitive function” (priority 2006, published 2008).
# pIC50: −log10 of the molar value. Where two headings read alike, the source gives them in different places.
# Experiments:
# [1] = biological target: T1, 5-HT1A (Homo sapiens, UniProt P08908)
# T1 sequence (P08908 1-422): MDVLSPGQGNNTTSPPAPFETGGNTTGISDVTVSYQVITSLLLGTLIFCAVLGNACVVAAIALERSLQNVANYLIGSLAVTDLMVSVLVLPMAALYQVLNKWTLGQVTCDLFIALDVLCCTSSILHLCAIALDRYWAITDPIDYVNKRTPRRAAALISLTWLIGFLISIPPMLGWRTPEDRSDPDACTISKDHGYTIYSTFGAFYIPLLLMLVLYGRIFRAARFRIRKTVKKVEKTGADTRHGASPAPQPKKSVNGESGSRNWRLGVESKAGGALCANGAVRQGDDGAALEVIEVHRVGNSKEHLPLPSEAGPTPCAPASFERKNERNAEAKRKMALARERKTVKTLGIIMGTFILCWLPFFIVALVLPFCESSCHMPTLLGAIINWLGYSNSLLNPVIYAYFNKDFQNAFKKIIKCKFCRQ
# [2] = biological target: D2 (Homo sapiens, UniProt P14416); details: read-out: Ki (nM) D2; Table 2; cited from earlier work
# Chain of D2 (P14416 whole entry): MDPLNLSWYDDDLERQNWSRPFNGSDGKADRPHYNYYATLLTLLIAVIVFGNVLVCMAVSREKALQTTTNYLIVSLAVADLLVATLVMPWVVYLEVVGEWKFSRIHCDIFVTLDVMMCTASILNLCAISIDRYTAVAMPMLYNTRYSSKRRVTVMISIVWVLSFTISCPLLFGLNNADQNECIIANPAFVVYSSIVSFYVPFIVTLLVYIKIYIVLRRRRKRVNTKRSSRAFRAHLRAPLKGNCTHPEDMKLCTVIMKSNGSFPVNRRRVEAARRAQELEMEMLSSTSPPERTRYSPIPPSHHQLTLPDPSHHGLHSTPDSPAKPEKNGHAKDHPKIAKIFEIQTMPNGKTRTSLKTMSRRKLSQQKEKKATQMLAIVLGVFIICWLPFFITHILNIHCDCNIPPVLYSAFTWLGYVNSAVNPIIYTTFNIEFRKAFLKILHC
# [3] = biological target: a1; details: Table 2; cited from earlier work
# [4] = system: recognition memory; assay: Novel Object Recognition Model (Example 1); assay type: in vivo, rats; details: for effect on the cognitive enhancing properties of Aricept in the Novel Object Recognition Model: co-administered with Aricept, lowers dose of both agents required for efficacy
# Protocol: (§1) Novel Object Recognition Model: Male Long-Evans hooded rats (˜200 g at the time of testing) were individually housed with ad libitum access to food and water. Novel object recognition (NOR) training and testing was performed in a circular field (diameter ˜70 cm, 30 cm high) constructed out of plastic and containing soiled bedding (without feces). The field was surrounded by black curtains to mask extra-field cues and was located in a dimly lit room (˜10 lux at the level of the area) in the presence of white noise (˜65 dB). Animal performance was tracked by video and monitored by an experimenter located outside of the testing room. Objects, constructed with Duplo® blocks (Lego), could be affixed to the floor in one of four locations spaced evenly around the field approximately 10 cm from the field's edge. To avoid possible olfactory cues, multiple copies of the objects were used throughout the study and were cleaned with a 30% ethanol solution between animals.
# The visual recognition task was divided into 3 sessions—habituation, a sample trial and a choice trial. During habituation the animals were placed into the field containing 2 identical yellow cubes (˜10 cm×10 cm×10 cm) and were allowed to explore the field for ten minutes. Following habituation, rats were returned to their home cage. One day after habituation, animals were dosed with drug (either a 5-HT1A antagonist compound, a cognitive enhancer or both a 5-HT1A antagonist compound and a cognitive enhancer) and following the pretreatment interval the sample trial was initiated. […] The amount of time investigating the objects was recorded for the entire trial. […]
# (§2) The effect of treatment on object exploration during trial one was examined using a one-way ANOVA on total contact time followed by Fisher's LSD group mean pair-wise comparisons. The amount of time exploring the novel and familiar objects across treatment groups was analyzed using a repeated measures ANOVA followed by Fisher's LSD post-hoc comparisons. […]
# [5] = system: recognition memory; assay: Novel Object Recognition, Compound 405 with Aricept (Example 2); assay type: in vivo, mice; details: compared between vehicle, Aricept 0.5 mg/kg, Compound 405 0.3 mg/kg and combination groups
# Protocol: as §1, with “Objects, constructed with Duplo® blocks (Lego), could be affixed to the floor in one of four locations spaced evenly around the field approximately 10 cm from the field's edge. To avoid possible olfactory cues, multiple copies of the objects were used throughout the study and were cleaned with a 30% ethanol solution between animals.” left out
# The visual recognition task was divided into 3 sessions—habituation, a sample trial and a choice trial. […] The amount of time investigating the objects was recorded for the entire trial. […]
# as §2
# Cognitive enhancement was measured using the Novel Object Recognition procedure described in Example 1. […]
# [6] = biological target: 5-HT2A (Homo sapiens, UniProt P28223); details: read-out: Ki (nM) 5-HT2A; Table 1; cited from earlier work
# Chain of 5-HT2A (P28223 whole entry): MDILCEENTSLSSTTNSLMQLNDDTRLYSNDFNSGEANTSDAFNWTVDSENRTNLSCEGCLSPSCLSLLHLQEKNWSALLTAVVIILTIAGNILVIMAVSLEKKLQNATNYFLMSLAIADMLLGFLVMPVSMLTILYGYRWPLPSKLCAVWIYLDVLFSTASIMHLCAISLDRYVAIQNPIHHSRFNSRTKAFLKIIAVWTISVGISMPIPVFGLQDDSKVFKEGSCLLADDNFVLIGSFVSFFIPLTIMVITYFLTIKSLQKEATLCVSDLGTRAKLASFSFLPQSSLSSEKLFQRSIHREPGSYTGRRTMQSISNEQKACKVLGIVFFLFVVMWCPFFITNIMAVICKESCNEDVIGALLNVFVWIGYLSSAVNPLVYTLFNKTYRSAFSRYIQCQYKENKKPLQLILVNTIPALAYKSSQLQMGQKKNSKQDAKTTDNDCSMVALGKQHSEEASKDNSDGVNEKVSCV
# [7] = biological target: *1^A; details: Table 4; cited from earlier work
# [8] = read-out: Ki (nM) 5-HT1A; Table 2; cited from earlier work
# [9] = Table 3; read-out: IC50 (nM) 5-HT1A; cited from earlier work
# [10] = Table 2; read-out: Ki (nM) 5-HT1A; cited from earlier work
# [11] = read-out: Ki (nM) 5-HT1A; Table 4; cited from earlier work
smiles,measurement,setting,value
COc1ccccc1N1CCN(CC(C(=O)NC(C)(C)C)c2ccccc2)CC1 (racemic) [Compound Y (R)],Ki,[1]; [8],104 nM
same,Ki,[2],4 nM
same,Ki,[3],1240 nM
COc1ccccc1N1CCN(CC(C(=O)NC(C)(C)C)c2ccccc2)CC1 (racemic) [Compound Y (S)],Ki,[1]; [8],22 nM
same,Ki,[2],20 nM
same,Ki,[3],1440 nM
COc1ccccc1N1CCN(CC(C(=O)NC(C)(C)C)c2ccccc2)CC1 (racemic) [Compound Y (±)],Ki,[1]; [8],20 nM
same,Ki,[2],14 nM
same,Ki,[3],718 nM
COc1cc(N2CCN(C3CCN(c4ccc(F)c5c(OC)cc(C(F)(F)F)nc45)CC3)CC2)c2ncccc2c1 [5-fluoro-4-methoxy-8-(4-(4-(6-methoxyquinolin-8-yl)piperazin-1-yl)piperidin-1-yl)-2-(trifluoromethyl)quinoline],effect on the cognitive enhancing properties of Aricept in the Novel Object Recognition Model,[4],synergistic effect
COc1cc(N2CCN(C3CCN(c4ccc(F)c5cccnc45)CC3)CC2)c2ncccc2c1 [5-fluoro-8-(4-(4-(6-methoxyquinolin-8-yl)piperazin-1-yl)piperidin-1-yl)quinoline],effect on the cognitive enhancing properties of Aricept in the Novel Object Recognition Model,[4],synergistic effect
"COc1cc2c(cc1OC)C(=O)C(CC1CCN(Cc3ccccc3)CC1)C2 (stereo not shown) [Aricept®, donepezil]","contact times familiar vs novel, administered separately","[4]; sub-threshold doses: Aricept 0.5 mg/kg i.p. or 5-HT1A antagonist 0.1 mg/kg p.o., 48 hour inter-trial interval",not statistically different
same,exploration time (FIG. 1),[5],relatively similar
O=c1ccc(=O)n(-c2ccccc2)n1CCCCN1CCN(c2cccc(Cl)c2)CC1 [Compound 104],Ki,[6],1830 nM
COc1ccccc1N1CCN(CCCn2c(=O)ccc(=O)n2-c2ccccc2)CC1 [Compound 105],Ki,[6],2120 nM
COc1ccccc1N1CCN(CCCCn2c(=O)ccc(=O)n2-c2ccccc2)CC1 [Compound 106],Ki,[1]; read-out: Ki (nM) 5-HT1A; Table 1; cited from earlier work,51 nM
same,Ki,[6],1450 nM
OC1(c2ccc3c(c2)OCO3)CCC(N2CCN(Cc3ccccc3)CC2)CC1 (stereo not shown) [Compound 112],IC50,[1]; [9],20 nM
COc1ccc(C2(O)CCC(N3CCN(Cc4ccccc4)CC3)CC2)cc1 (stereo not shown) [Compound 113],IC50,[1]; [9],50 nM
COc1cccc(CN2CCN(C3CCC(O)(c4ccc5c(c4)OCO5)CC3)CC2)c1 (stereo not shown) [Compound 114],IC50,[1]; [9],2.2 nM
COc1ccccc1N1CCN(CC(C(=O)NC2CCCCC2)c2ccccc2)CC1 (stereo not shown) [Compound 118],Ki,[1]; [8],10 nM
same,Ki,[3],1870 nM
O=C(C1CCCCC1)N(CN1CCN(c2ccccc2O)CC1)c1ccccn1 [Compound 119],pIC50,"[1]; Table 2, starred value; read-out: 5-HT1A, data expressed as IC50 value (*); cited from earlier work",8.68
CS(=O)(=O)Oc1ccccc1N1CCN(CN(C(=O)C2CCCCC2)c2ccccn2)CC1 [Compound 122],Ki,[1]; [10],7.25 nM
O=C(C1CCCCC1)N(CN1CCN(c2ccccc2OS(=O)(=O)C(F)(F)F)CC1)c1ccccn1 [Compound 123],Ki,[1]; [10],36 nM
COc1ccccc1N1CCN(CCN(C(=O)c2ccc(I)cc2)c2ccccn2)CC1 [Compound 124],Ki,[1]; [8],2.6 nM
same,Ki,[2],19 nM
same,Ki,[3],35 nM
COc1ccccc1N1CCN(CCN(C(=O)c2cccc(I)c2)c2ccccn2)CC1 [Compound 125],Ki,[1]; [10],1.7 nM
COc1ccccc1N1CCN(CCN(C(=O)c2ccc(F)cc2)c2ccccn2)CC1 [Compound 127],Ki,[1]; [10],3.3 nM
COc1ccccc1N1CCN(CCCSc2nc3sc4c(c3c(=O)n2N)CCC4)CC1 [Compound 129],Ki,[1]; [11],9.26 nM
same,Ki,[7],7.39 nM
COc1ccccc1N1CCN(CCCSc2nc(N)c3c(C)c(C)sc3n2)CC1 [Compound 135],Ki,[1]; [11],2.45 nM
same,Ki,[7],10.8 nM
CCOc1ccccc1-c1nnc(SCCCN2CCN(c3ccccc3[N+](=O)[O-])CC2)s1 [Compound 137],Ki,[1]; [11],135 nM
same,Ki,[7],437 nM
"C[C@H](CN(C(=O)C1CCCCC1)c1ccccn1)N1CCN(c2cccc3[nH]ccc23)CC1 [Compound 405, (R)-N-(2-methyl-(4-indolyl-1-piperazinyl)ethyl)-N-(2-pyridinyl)cyclohexane carboxamide]",exploration time (FIG. 1),[5],relatively similar
COc1ccccc1N1CCN(CN(C(=O)C2CCCCC2)c2ccccn2)CC1 [Compound X],Ki,[1]; [8],0.24 nM
same,Ki,[2],79 nM
same,Ki,[3],45 nM
